Test results: US12486267B2, “Imidazo[1,2-A]pyridine and [1,2,4]triazolo[1,5-A]pyridine derivatives as TLR9 inhibitors for the treatment of fibrosis” (BRISTOL-MYERS SQUIBB COMPANY, priority 2020, dated 2025)

Experiments:
Format in all cases: cell-based
human TLR7 = target: T1, human TLR7 (Homo sapiens, UniProt Q9NYK1); assay: TLR7 inhibition reporter assay (HEK-Blue cells, SEAP reporter); details: HEK-Blue cells overexpressing human TLR7; stimulated with gardiquimod 7.5 μM; 22 hour incubation; SEAP readout
T1 sequence (Q9NYK1 27-1049): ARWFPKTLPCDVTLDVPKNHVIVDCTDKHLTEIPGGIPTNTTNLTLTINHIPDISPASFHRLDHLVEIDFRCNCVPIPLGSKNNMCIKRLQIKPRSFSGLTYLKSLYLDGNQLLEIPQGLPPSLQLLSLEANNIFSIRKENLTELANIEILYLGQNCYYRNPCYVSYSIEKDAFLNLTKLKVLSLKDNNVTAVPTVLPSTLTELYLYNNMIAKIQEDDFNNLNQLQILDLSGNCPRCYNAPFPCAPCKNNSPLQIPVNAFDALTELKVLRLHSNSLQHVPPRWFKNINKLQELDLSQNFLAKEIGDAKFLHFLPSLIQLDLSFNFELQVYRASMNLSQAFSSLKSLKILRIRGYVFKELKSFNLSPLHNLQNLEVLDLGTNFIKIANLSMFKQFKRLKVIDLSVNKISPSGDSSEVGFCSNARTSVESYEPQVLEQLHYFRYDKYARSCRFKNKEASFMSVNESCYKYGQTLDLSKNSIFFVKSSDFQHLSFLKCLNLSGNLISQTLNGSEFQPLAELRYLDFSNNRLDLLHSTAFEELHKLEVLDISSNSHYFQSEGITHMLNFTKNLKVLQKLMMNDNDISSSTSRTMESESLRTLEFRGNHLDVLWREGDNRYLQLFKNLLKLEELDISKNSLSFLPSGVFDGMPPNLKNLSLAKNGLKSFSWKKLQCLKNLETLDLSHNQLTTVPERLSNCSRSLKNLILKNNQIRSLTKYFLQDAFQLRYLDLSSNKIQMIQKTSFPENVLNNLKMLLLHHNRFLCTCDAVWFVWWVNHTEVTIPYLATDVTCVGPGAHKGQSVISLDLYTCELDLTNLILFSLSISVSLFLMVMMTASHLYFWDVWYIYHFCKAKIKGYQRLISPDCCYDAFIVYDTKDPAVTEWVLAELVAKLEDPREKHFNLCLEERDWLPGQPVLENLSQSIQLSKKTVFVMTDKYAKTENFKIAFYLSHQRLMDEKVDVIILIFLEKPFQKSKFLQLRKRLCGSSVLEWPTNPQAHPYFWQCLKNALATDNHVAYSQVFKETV
Method in brief: (§1)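 HEK-Blue cells with an NF-κB/AP-1-driven SEAP reporter were pre-treated 30 min at room temperature with compound (0.05 nM–50 μM), then stimulated with gardiquimod 7.5 μM (TLR7), R848 15.9 μM (TLR8) or ODN2006 5 nM (TLR9). After 22 h at 37 °C, SEAP was read; % inhibition was referenced to agonist+DMSO and known-inhibitor wells.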

human TLR8 = target: T2, human TLR8 (Homo sapiens, UniProt Q9NR97); assay: TLR8 inhibition reporter assay (HEK-Blue cells, SEAP reporter); details: HEK-Blue cells overexpressing human TLR8; stimulated with R848 15.9 μM; 22 hour incubation; SEAP readout
T2 sequence (Q9NR97 27-1041): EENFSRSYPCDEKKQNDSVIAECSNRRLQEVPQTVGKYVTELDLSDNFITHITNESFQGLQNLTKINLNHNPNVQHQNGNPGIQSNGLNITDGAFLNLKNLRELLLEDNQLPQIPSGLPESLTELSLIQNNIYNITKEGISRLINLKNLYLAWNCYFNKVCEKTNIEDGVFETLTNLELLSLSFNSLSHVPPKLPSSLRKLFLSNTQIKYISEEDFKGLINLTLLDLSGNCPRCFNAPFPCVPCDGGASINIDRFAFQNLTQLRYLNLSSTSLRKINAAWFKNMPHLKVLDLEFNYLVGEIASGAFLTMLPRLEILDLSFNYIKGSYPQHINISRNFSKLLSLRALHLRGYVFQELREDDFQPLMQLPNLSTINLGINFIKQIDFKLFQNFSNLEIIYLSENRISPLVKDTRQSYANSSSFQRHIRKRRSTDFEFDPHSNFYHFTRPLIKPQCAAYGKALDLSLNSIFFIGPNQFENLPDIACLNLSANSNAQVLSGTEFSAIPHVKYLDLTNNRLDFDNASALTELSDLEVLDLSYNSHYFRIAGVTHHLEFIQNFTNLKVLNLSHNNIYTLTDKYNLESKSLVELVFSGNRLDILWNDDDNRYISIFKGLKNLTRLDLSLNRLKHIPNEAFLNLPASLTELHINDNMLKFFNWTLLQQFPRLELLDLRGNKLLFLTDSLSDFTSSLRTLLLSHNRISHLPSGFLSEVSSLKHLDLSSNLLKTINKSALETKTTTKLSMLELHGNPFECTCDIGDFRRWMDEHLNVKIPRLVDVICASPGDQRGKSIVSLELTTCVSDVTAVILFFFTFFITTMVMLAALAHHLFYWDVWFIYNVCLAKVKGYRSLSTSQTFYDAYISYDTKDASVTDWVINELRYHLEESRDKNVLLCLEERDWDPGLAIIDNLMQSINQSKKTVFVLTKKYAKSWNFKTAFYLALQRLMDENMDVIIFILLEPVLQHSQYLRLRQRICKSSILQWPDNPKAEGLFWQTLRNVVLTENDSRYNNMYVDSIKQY
Method in brief: as §1

human TLR9 = target: T3, human TLR9 (Homo sapiens, UniProt Q9NR96); assay: TLR9 inhibition reporter assay (HEK-Blue cells, SEAP reporter); details: HEK-Blue cells overexpressing human TLR9; stimulated with ODN2006 5 nM; 22 hour incubation; SEAP readout
T3 sequence (Q9NR96 26-1032): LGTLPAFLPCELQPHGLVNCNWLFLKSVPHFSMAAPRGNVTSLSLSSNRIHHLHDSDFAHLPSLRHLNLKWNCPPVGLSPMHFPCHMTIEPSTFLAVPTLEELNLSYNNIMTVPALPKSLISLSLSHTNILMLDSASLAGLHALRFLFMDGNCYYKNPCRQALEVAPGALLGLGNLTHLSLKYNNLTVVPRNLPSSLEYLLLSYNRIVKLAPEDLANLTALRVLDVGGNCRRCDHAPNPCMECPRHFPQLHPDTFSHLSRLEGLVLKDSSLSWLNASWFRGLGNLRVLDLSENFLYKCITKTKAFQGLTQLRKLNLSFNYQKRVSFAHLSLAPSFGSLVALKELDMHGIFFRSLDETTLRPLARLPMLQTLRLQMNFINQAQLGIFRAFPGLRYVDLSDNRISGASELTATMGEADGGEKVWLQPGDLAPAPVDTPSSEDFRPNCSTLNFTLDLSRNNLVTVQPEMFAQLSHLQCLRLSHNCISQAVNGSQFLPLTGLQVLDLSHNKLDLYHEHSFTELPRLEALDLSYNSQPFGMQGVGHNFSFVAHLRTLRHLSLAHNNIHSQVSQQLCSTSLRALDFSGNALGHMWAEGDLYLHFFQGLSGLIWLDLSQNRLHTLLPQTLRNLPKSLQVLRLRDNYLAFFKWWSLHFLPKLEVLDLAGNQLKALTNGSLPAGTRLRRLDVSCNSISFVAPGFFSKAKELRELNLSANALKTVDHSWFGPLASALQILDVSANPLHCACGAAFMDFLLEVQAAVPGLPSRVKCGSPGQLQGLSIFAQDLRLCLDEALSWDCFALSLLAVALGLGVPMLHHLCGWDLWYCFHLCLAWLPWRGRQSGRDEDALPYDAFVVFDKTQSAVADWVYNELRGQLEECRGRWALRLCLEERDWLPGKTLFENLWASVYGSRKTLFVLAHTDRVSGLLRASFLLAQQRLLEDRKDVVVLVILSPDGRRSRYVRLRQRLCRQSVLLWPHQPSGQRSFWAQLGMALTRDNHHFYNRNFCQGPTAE
Method in brief: as §1

IC50 (human TLR7) [µM] | IC50 (human TLR8) [µM] | IC50 (human TLR9) [µM] | SMILES
> 50 | > 50 | 0.068 | COc1ccc(-c2cn3c(n2)CCC(C2CCN(C4CC5(C4)CN(CC4CC4)C5)CC2)C3)cc1OC (racemic) [Example 51, 6-(1-(2-(cyclopropylmethyl)-2-azaspiro[3.3]heptan-6-yl)piperidin-4-yl)-2-(3,4-dimethoxyphenyl)-5,6,7,8-tetrahydroimidazo[1,2-a]pyridine]
3.8 | > 50 | 0.052 | COc1ccc(-c2cn3cc(C4CCN(C5CCN(C(C)C)CC5)CC4)cc(C)c3n2)cc1OC [Example 2, 2-(3,4-dimethoxyphenyl)-6-(1′-isopropyl-[1,4′-bipiperidin]-4-yl)-8-methylimidazo[1,2-a]pyridine]
> 50 | > 50 | 0.381 | CS(=O)(=O)c1ccc(-c2cn3c(n2)CC[C@H](C2CCN(C4CC5CCC(C4)N5CC4CC4)CC2)C3)cc1 (single isomer, unassigned) [Example 138]
11 | > 50 | 0.1 | CC(C)CN1CCC(N2CCC(c3cc(F)c4nc(-c5ccc(S(C)(=O)=O)cc5)cn4c3)CC2)CC1 [Example 107, 8-fluoro-6-(1′-isobutyl-[1,4′-bipiperidin]-4-yl)-2-(4-(methylsulfonyl)phenyl) imidazo[1,2-a]pyridine]
1 | > 50 | 0.531 | COc1ccc(-c2cn3cc(-c4ccc(N5CCN(CC6CC6)CC5)cc4)cc(C)c3n2)cc1OC [Example 95, 6-(4-(4-(cyclopropylmethyl)piperazin-1-yl)phenyl)-2-(3,4-dimethoxyphenyl)-8-methylimidazo[1,2-a]pyridine]
4 | > 50 | 0.3 | CC(C)N1CCC(N2CCC(c3ccn4cc(-c5ccc(S(C)(=O)=O)cc5)nc4c3F)CC2)CC1 [Example 132, 8-fluoro-7-(1′-isopropyl-[1,4′-bipiperidin]-4-yl)-2-(4-(methylsulfonyl)phenyl) imidazo[1,2-a]pyridine]
> 50 | > 50 | 0.357 | COc1ccc(-c2nc3n(n2)CC(c2ccc(N4CC5CCC(C4)N5C(C)C)cc2)CC3C)cc1OC (stereo not drawn) [Example 152, 2-(3,4-dimethoxyphenyl)-6-(4-(8-isopropyl-3,8-diazabicyclo[3.2.1]octan-3-yl)phenyl)-8-methyl-5,6,7,8-tetrahydro-[1,2,4]triazolo[1,5-a]pyridine]
> 50 | > 25 | 2.1 | COc1ccc(-c2cn3cc(-c4ccc(N5CCN(C6CCOCC6)CC5)cc4)cc(C)c3n2)cc1OC [Example 97, 2-(3,4-dimethoxyphenyl)-8-methyl-6-(4-(4-(tetrahydro-2H-pyran-4-yl)piperazin-1-yl)phenyl) imidazo[1,2-a]pyridine]
> 50 | 22.5 | 0.01 | CS(=O)(=O)c1ccc(-c2cn3cc(C4CCN(C5CCCN(C6CCOCC6)CC5)CC4)cc(F)c3n2)cc1 (single isomer, unassigned) [Example 130, 8-fluoro-2-(4-(methylsulfonyl)phenyl)-6-(1-(1-(tetrahydro-2H-pyran-4-yl)azepan-4-yl)piperidin-4-yl)imidazo[1,2-a]pyridine]
11 | > 50 | 1.24 | COc1ccc(-c2nc3cc(C4CCN(C5CCN(CC(C)C)CC5)CC4)ccn3n2)cc1OC [Example 61, 2-(3,4-dimethoxyphenyl)-7-(1′-isobutyl-[1,4′-bipiperidin]-4-yl)-[1,2,4]triazolo[1,5-a]pyridine]
47 | > 50 | 0.163 | COc1ccc(-c2cn3cc(C4CCN(C5CC6(C5)CN(C(C)C)C6)CC4)cc(C)c3n2)cc1OC [Example 13, 2-(3,4-dimethoxyphenyl)-6-(1-(2-isopropyl-2-azaspiro[3.3]heptan-6-yl)piperidin-4-yl)-8-methylimidazo[1,2-a]pyridine]
2.1 | > 50 | 0.09 | COc1ccc(-c2cn3c(n2)CCC(C2CCN(C4CC5(C4)CN(C(C)C)C5)CC2)C3)cc1OC (racemic) [Example 45, 2-(3,4-dimethoxyphenyl)-6-(1-(2-isopropyl-2-azaspiro[3.3]heptan-6-yl)piperidin-4-yl)-5,6,7,8-tetrahydroimidazo[1,2-a]pyridine]
16.7 | 16.7 | 0.171 | CC(C)CN1C2CCC1CC(N1CCC([C@H]3CCc4nc(-c5ccc(S(C)(=O)=O)cc5)cn4C3)CC1)C2 (single isomer, unassigned) [Example 79]
46 | > 50 | 0.047 | COc1ccc(-c2cn3cc(C4CCN(C5CC6(C5)CN(CC(C)C)C6)CC4)cc(C)c3n2)cc1OC [Example 15, 2-(3,4-dimethoxyphenyl)-6-(1-(2-isobutyl-2-azaspiro[3.3]heptan-6-yl)piperidin-4-yl)-8-methylimidazo[1,2-a]pyridine]
